Earlier results, collected in patent publication US6187938A, “ω-amino acid derivatives, processes of their preparation and their use” (Bochemie, s.r.o., priority 1997, dated 2001).

Test system: skin
Settings: in presence of petrolatum; Stoughton, McClure 1983

SMILES: CCCCCCCCCCCCN1CCCCCC1=O [laurocapram, 1-dodecylazacycloheptan-2-one]
- inhibition of permeation enhancing effect by paraffinic auxiliary substances (e.g., petrolatum): completely inhibit
